Laboratory results published in paper PMC11089503, “Exploring Subsite Selectivity within Plasmodium vivaxN-Myristoyltransferase Using Pyrazole-Derived Inhibitors” (Journal of Medicinal Chemistry, 2024).
Read-outs that look alike come from different tables or passages of the source.

Key:
[1] = target: T1, PvNMT (Plasmodium vivax, UniProt A5K1A2); experiment: NMT activity assay (CPM fluorescence detection of free CoA), PvNMT
[2] = target: T2, HsNMT Isoform 1 (Homo sapiens, UniProt P30419); experiment: NMT activity assay (CPM fluorescence detection of free CoA), HsNMT
T2 sequence (P30419 1-496): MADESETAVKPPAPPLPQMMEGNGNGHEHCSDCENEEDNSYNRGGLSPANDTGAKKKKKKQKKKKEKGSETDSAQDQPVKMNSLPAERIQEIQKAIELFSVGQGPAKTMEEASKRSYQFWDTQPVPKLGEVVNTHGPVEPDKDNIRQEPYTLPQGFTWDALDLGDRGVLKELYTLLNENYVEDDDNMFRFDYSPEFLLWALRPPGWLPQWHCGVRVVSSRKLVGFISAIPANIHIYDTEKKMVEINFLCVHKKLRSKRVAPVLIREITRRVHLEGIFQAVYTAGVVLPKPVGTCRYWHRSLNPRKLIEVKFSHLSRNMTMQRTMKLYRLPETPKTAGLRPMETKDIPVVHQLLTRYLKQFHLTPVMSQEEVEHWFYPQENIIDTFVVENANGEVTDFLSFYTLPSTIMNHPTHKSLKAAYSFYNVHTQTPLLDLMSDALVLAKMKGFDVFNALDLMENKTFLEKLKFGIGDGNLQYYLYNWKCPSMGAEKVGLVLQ

[3] = target: T1, PvNMT; conditions: cited from earlier work
[4] = tested on: HsNMT1/2; design: method as in PMID 29760414; conditions: cited from earlier work

T1 sequence (A5K1A2 entry or part of it): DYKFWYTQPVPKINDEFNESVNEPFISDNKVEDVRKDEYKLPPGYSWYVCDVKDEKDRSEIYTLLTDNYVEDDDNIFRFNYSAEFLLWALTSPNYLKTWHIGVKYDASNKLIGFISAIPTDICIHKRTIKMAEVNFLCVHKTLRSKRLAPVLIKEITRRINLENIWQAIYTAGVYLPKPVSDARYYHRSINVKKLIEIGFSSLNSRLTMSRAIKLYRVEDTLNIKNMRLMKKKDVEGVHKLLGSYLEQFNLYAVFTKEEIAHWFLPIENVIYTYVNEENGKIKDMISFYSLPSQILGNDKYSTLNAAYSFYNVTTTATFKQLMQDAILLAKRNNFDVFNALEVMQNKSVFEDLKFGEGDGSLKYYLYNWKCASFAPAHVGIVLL

Cc1c(CCOc2ccccc2-c2ccnc(N3CCNCC3)c2)c(C(=O)NCC(=O)O)nn1C [Compound 8c, (1,5-Dimethyl-4-(2-(2-(2-(piperazin-1-yl)pyridin-4-yl)phenoxy)ethyl)-1H-pyrazole-3-carbonyl)glycine] gave an IC50 [1] of 147 nM and an IC50 [2] of 116 nM.
Cc1c(CCOc2ccccc2-c2ccnc(N3CCNCC3)c2)c(C(=O)N2CCOCC2)nn1C [Compound 8b, (1,5-Dimethyl-4-(2-(2-(2-(piperazin-1-yl)pyridin-4-yl)phenoxy)ethyl)-1H-pyrazol-3-yl)(morpholino)methanone] showed an IC50 [1] of 24 nM and an IC50 [2] of 763 nM.
For Cc1c(CCOc2ccccc2-c2ccnc(N3CCNCC3)c2)c(C(=O)Nc2cccnc2)nn1C [Compound 8a, 1,5-Dimethyl-4-(2-(2-(2-(piperazin-1-yl)pyridin-4-yl)phenoxy)ethyl)-N-(pyridin-3-yl)-1H-pyrazole-3-carboxamide], the IC50 [1] was 506 nM and the IC50 [2] was 2520 nM.
Cc1c(CCOc2cccnc2-c2ccnc(N3CCNCC3)c2)c(C(=O)N2CCOCC2)nn1C [Compound 9b, (1,5-Dimethyl-4-(2-((2′-(piperazin-1-yl)-[2,4′-bipyridin]-3-yl)oxy)ethyl)-1H-pyrazol-3-yl)(morpholino)methanone] gave an IC50 [1] of 46 nM and an IC50 [2] of 1650 nM.
Molecule Cc1c(CCOc2ccccc2-c2ccnc(N3CCNCC3)c2)c(C(=O)NCCN)nn1C [Compound 8f, N-(2-Aminoethyl)-1,5-dimethyl-4-(2-(2-(2-(piperazin-1-yl)pyridin-4-yl)phenoxy)ethyl)-1H-pyrazole-3-carboxamide] has an IC50 [1] of 89 nM and an IC50 [2] of 103 nM.
In the case of Cc1c(CCOc2cccnc2-c2ccnc(N3CCNCC3)c2)c(C(=O)NCC(=O)O)nn1C [Compound 9c, (1,5-Dimethyl-4-(2-((2′-(piperazin-1-yl)-[2,4′-bipyridin]-3-yl)oxy)ethyl)-1H-pyrazole-3-carbonyl)glycine], the IC50 [1] is reported as 230 nM and the IC50 [2] is reported as 11100 nM.
For Cc1c(CCOc2ccc3ccccc3c2-c2ccnc(N3CCNCC3)c2)c(C(=O)Nc2cccnc2)nn1C [Compound 10a, 1,5-Dimethyl-4-(2-((1-(2-(piperazin-1-yl)pyridin-4-yl)naphthalen-2-yl)oxy)ethyl)-N-(pyridin-3-yl)-1H-pyrazole-3-carboxamide], the IC50 [1] was 5070 nM.
For Cc1c(CCOc2ccccc2-c2ccnc(N3CCNCC3)c2)c(C(=O)NCCO)nn1C [Compound 8h, N-(2-Hydroxyethyl)-1,5-dimethyl-4-(2-(2-(2-(piperazin-1-yl)pyridin-4-yl)phenoxy)ethyl)-1H-pyrazole-3-carboxamide], the IC50 [1] was 39 nM and the IC50 [2] was 504 nM.
For Cc1c(CCOc2ccc3ccccc3c2-c2ccnc(N3CCNCC3)c2)c(C(=O)NCC(N)=O)nn1C [Compound 10d, N-(2-Amino-2-oxoethyl)-1,5-dimethyl-4-(2-((1-(2-(piperazin-1-yl)pyridin-4-yl)naphthalen-2-yl)oxy)ethyl)-1H-pyrazole-3-carboxamide], the IC50 [1] was 1000 nM.
Work on Cc1c(CCOc2ccc3ccccc3c2-c2ccnc(N3CCNCC3)c2)c(C(=O)NCC(=O)O)nn1C [Compound 10c, (1,5-Dimethyl-4-(2-((1-(2-(piperazin-1-yl)pyridin-4-yl)naphthalen-2-yl)oxy)ethyl)-1H-pyrazole-3-carbonyl)glycine] yielded an IC50 [1] of 1060 nM.
For Cc1nn(C)c(C)c1CCOc1cc(F)ccc1-c1ccc2c(c1)c(CN(C)C)nn2C [IMP-1002], the IC50 [3] is listed as 3 nM.
Work on Cc1c(CCOc2ccc3ccccc3c2-c2ccnc(N3CCNCC3)c2)c(C(=O)N2CCOCC2)nn1C [Compound 10b, (1,5-Dimethyl-4-(2-((1-(2-(piperazin-1-yl)pyridin-4-yl)naphthalen-2-yl)oxy)ethyl)-1H-pyrazol-3-yl)(morpholino)methanone] yielded an IC50 [1] of 91 nM and an IC50 [2] of 11400 nM.
For Cc1c(CCOc2cccnc2-c2ccnc(N3CCNCC3)c2)c(C(=O)NCC(N)=O)nn1C [Compound 9d, N-(2-Amino-2-oxoethyl)-1,5-dimethyl-4-(2-((2′-(piperazin-1-yl)-[2,4′-bipyridin]-3-yl)oxy)ethyl)-1H-pyrazole-3-carboxamide], the IC50 [1] was 181 nM and the IC50 [2] was 11000 nM.
In the case of COC(=O)CNC(=O)c1nn(C)c(C)c1CCOc1ccccc1-c1ccnc(N2CCNCC2)c1 [Compound 8i, Methyl (1,5-Dimethyl-4-(2-(2-(2-(piperazin-1-yl)pyridin-4-yl)phenoxy)ethyl)-1H-pyrazole-3-carbonyl)glycinate], the IC50 [1] is reported as 20 nM and the IC50 [2] is reported as 57 nM.
Work on Cc1c(CCOc2cccnc2-c2ccnc(N3CCNCC3)c2)c(C(=O)Nc2cccnc2)nn1C [Compound 9a, 1,5-Dimethyl-4-(2-((2′-(piperazin-1-yl)-[2,4′-bipyridin]-3-yl)oxy)ethyl)-N-(pyridin-3-yl)-1H-pyrazole-3-carboxamide] yielded an IC50 [1] of 1020 nM.
In the case of CC(=O)CNC(=O)c1nn(C)c(C)c1CCOc1ccccc1-c1ccnc(N2CCNCC2)c1 [Compound 8g, 1,5-Dimethyl-N-(2-oxopropyl)-4-(2-(2-(2-(piperazin-1-yl)pyridin-4-yl)phenoxy)ethyl)-1H-pyrazole-3-carboxamide], the IC50 [1] is reported as 32 nM, the “SI (enzyme selectivity)” value ([1]; calculated as HsNMT IC50/PvNMT IC50) is reported as over 31 and the IC50 [2] is reported as 1590 nM.
For Cc1nn(C)c(C)c1CCOc1c(-c2ccc3c(c2)c(CN(C)C)nn3C)ccc(F)c1F [IMP-1088], the “HsNMT1/2 IC50” value [4] is listed as “picomolar”.
